{"source": "patent US7173063B1", "about": "“Topoisomerase poisons for the treatment of proliferative disorders” (Fred Hutchinson Cancer Research Center, priority 2000, dated 2007)", "tested_on": "yeast Topo I", "assay": "Toxicity in yeast overexpressing yeast Topo I (yTOP1) or ytop1-vac mutant", "type": "cell-based", "text": "The strains are derived from the A364a genetic background, with the exception of BY4705, which is derived from the S288C background. Gene disruptions were generated by PCR fragment directed replacement (Baudin, et al., Nucleic Acids Research 21: 3329–30 (1993), Guldener, et al., Nucleic Acids Research 24: 2519–24 (1996)). Yeast overexpressing topoisomerase II was constructed by a PCR fragment directed promoter replacement of the topoisomerase II promoter with the yeast GPD promoter flanked upstream by the URA3 marker. All strains (except BY4705) bear the pleitropic drug sensitizing mutations erg6, pdr1, and pdr3 (Balzi, et al., Journal of Bioenergetics & Biomembranes 27: 71–6 (1995), Delaveau, et al, Molecular & General Genetics 244: 501–11 (1994), Gaber, et al., Molecular & Cellular Biology 9: 3447–56 (1989), Saunders, et al., Canadian Journal of Genetics & Cytology, 24: 493–503 (1982). Subik, et al, Current Genetics 10: 665–70 (1986)). The haploid yeast strain BY4705 (Brachmann, et al., Yeast 14: 115–32 (1998)) was used in the experiments described in FIG. 5. Plasmids expressing yeast or human topoisomerase I genes under the GAL promoter (Knab, et al., Journal of Biological Chemistry 268: 22322–30 (1993). Knab, et al., Journal of Biological Chemistry 270: 6141–8 (1995)) were transformed into BY4705 using standard procedures.\nYeast toxicity assays were performed essentially as follows: Exponentially growing cultures of the appropriate strains were diluted in synthetic complete media to a concentration of 7.4×10^4 cells/mL, and aliquots (135 μL) were transferred to each well of clear flat-bottomed 96 well plates. Compounds were added in duplicate or triplicate as 15 μL of the appropriate dilution in 5% DMSO. A 15 μL portion of 5% DMSO was added to control wells. […] Cell growth (OD660) in treated wells was plotted as a percentage of the growth in at least four averaged solvent control wells for the same strain. Camptothecin sodium salt (camptothecin Na) was the agent used in all yeast assays as standard.\nIn this regard, the sensitivity of yeast strains overexpressing either human or yeast topoisomerase I genes (hTOP1 or yTOP1, respectively) under the control of the inducible GAL promoter (see, for example, Knab, et al., Journal of Biological Chemistry 268: 22322–30 (1993); and Knab, et al., Journal of Biological Chemistry 270: 6141–8 (1995)) were used. Additionally, the sensitivity of yeast overexpressing the Topo I-VAC mutant enzyme, containing two amino acid substitutions (htop1-vac and ytop1-vac) that render topoisomerase I insensitive to the action of camptothecin were also examined (see, for example, Knab, et al., Journal of Biological Chemistry 268: 22322–30 (1993); and Knab, et al., Journal of Biological Chemistry 270: 6141–8 (1995))."}
{"smiles": "O=c1c(Cl)c(Cl)cnn1CCCl", "note": "[compound IIa]", "values": [{"measurement": "toxicity in yeast overexpressing yTOP1-vac compared to vector control, cell survival by colony formation", "setting": "colony formation after treatment", "value": "is accentuated"}, {"measurement": "effect of ytop1-vac (camptothecin-resistant mutant) overexpression on toxicity", "setting": "relative OD660", "value": "effective with both yTOP1 and ytop1-vac"}]}
